Consider 1 molecule from article PMC9213739, “Substrates and Loaded Iron Ions Relative Position Influence the Catalytic Characteristics of the Metalloenzymes Angelica archangelica Flavone Synthase I and Camellia sinensis Flavonol Synthase” (Frontiers in Pharmacology, 2022).

Each structure is given as a SMILES string.

For experiment [1], the target named is T1, CaFLS (Camellia sinensis, UniProt A0A3G1RNB1).
T1 construct: gene FLS; synthetic gene in pET-28a(+) (NcoI/XhoI), expressed in E. coli BL21(DE3); 331 residues; mutants carry fragments of AnFNS I
T1 sequence (A0A3G1RNB1 entry or part of it): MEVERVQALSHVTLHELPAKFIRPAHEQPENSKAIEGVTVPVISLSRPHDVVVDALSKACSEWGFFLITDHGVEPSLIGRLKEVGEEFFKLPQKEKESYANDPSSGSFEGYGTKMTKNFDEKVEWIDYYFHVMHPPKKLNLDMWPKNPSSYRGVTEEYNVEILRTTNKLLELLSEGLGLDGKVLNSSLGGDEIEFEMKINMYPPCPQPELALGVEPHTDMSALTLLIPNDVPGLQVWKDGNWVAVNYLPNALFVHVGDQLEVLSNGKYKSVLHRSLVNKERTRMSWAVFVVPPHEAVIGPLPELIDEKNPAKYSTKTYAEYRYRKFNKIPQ
Description: UPLC-MS product formation, Lineweaver-Burk. Type of experiment: biochemical. The note with it: tamarixetin formation (main product); Tris-HCl pH 7.5, 23 °C. The text has this: (§1) UPLC-MS product formation, Lineweaver-Burk on CaFLS

In experiment [2] the target is T1, CaFLS. The experiment can be described thus: UPLC-MS product formation, Lineweaver-Burk. Type of experiment: biochemical. The following applies: Tris-HCl pH 7.5, 23 °C.
Text: as §1

Turning to `COc1ccc([C@@H]2CC(=O)c3c(O)cc(O)cc3O2)cc1O` [hesperetin], the results for the Km on CaFLS [1], at CaFLS [2] (diosmetin formation (main product)) and on CaFLS [2] (tamarixetin formation (main product)) were 68.5 µM, 65.4 µM and 66.4 µM, respectively.

The term Km denotes the substrate concentration at which the rate is half of its maximum.
